The text below walks through data of patent US20210395256A1, “TYROSINE KINASE INHIBITORS, COMPOSITIONS AND METHODS THERE OF” (Betta Pharmaceuticals Co., Ltd., priority 2018, published 2021).

Where two headings read alike, the source gives them in different places.

Series [1] addresses TrkA kinase (Homo sapiens, UniProt P04629). Nature of the series: TrkA kinase assay (mobility shift assay). Type of series: biochemical. The settings on record: read-out: Trk A Kinase IC50. The method in brief:
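Caliper mobility-shift readout of FAM-labelled peptide conversion by TrkA in 50 mM HEPES pH 7.5, 0.0015% Brij-35, with ATP; enzyme preincubated 10 min with compound (10-point dilution), reaction at 28 °C, EDTA stop. Inhibition relative to DMSO and no-enzyme controls; IC50 by four-parameter fit.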

Series [2] has as its target T1, Ba/F3-TPM3-NTRK1 (Homo sapiens, UniProt P04629).
T1 construct: expressed in transfected cells; host or cells: Ba/F3; the other entry of the earlier key: TPM3 (P06753, Tropomyosin alpha-3 chain)
Nature of the series: Ba/F3-TPM3-NTRK1 cells proliferation assay. It counts as cell-based. As to conditions: 72 h, CellTiter Glo. Here is the method:
Example 202 Ba/F3-TPM3-NTRK1 and Ba/F3-ETV6-NTRK3 cells proliferation assay
Cell line: Ba/F3 cells with TPM3-NTRK1 or ETV6-NTRK3 fusion mutation gene stably overexpressed named Ba/F3-TPM3-NTRK1 and Ba/F3-ETV6-NTRK3.
RPMI 1640 and 10% FBS and 1% PS and 2 ug/mL puromycin.
b) Collect cell to a 15 mL centrifuged tube, centrifuge at 1000 rpm for 5 min. Discard the supernatant, count, and make the cell density at 1.49×10^4 cells/mL, then place it in a 37° C., 5% CO2 incubator.
a) The test compound (20 mM stock solution) was diluted to 60 μM with 100% DMSO as starting concentration then 3-fold serial diluted with “9+0” concentrations. in a 96-well dilution plate (Thermo, Cat. No. 249944);
b) The above compound solution was diluted 1:20 times with culture medium to prepare a 10 fold working solution;
a) Take cells in log phase growth, centrifuge at 1000 rpm for 5 min, then resuspend the cells with culture medium, then count cells;
b) Cells were seeded to 96-well cell culture plate with density at 2000 cells/well;
a) Compounds prepared at step 2 were added to cell plate with 15 μL per well, the final concentrations were 300, 100, 33.33, 11.11, 3.70, 1.23, 0.41, 0.14, 0.05 and 0 nM, and the final concentration of DMSO was 0.5%. The blank control well was a culture medium (0.5% DMSO);
c) The cells were incubated for an additional 72 h in the incubator.
a) Remove the 96-well cell culture plate and add 50 μl of CTG reagent (CellTiter Glo kit, promega, Cat #G7573).
b) Plate was shaked for 2 min and then let it cool for 30 min at room temperature.
c) The Luminescence signal value was read using a PerkinElmer reader.
Experimental Data Analysis
Data were analyzed using GraphPad Prism 6.0 software to obtain a fitted curve of compound activity.
Fit the Compound IC50 from non-linear regression equation:
Y=Bottom+(Top-Bottom)/(1+10^((Log IC50-X)×HillSlope));
X: The log of the concentration of the compound; Y: Luminescence value.
(In general: ATP-based viability assays read luminescence as a measure of living cells.)

The target in series [3] is T2, Ba/F3-ETV6-NTRK3 (Homo sapiens, UniProt Q16288).
T2 construct: Ba/F3 cells with TPM3-NTRK1 or ETV6-NTRK3 fusion mutation gene stably overexpressed named Ba/F3-TPM3-NTRK1 and Ba/F3-ETV6-NTRK3; fused on or other part: P41212 (Transcription factor ETV6)
Nature of the series: Ba/F3-ETV6-NTRK3 cells proliferation assay. As to conditions: 72 h, CellTiter Glo. Type of series: cell-based. A digest of the protocol: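 Ba/F3 cells stably expressing TPM3-NTRK1 or ETV6-NTRK3 fusions, 2000/well, exposed 72 h to compound at 300 to 0.05 nM final (3-fold series, 0.5% DMSO). Viability by CellTiter-Glo luminescence; IC50 by four-parameter nonlinear regression.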

The target in series [4] is NTRK1-G595R (Homo sapiens, UniProt P04629, G595R). The series is described as follows: NTRK1-G595R cell proliferation assay (Table 13). Type of series: cell-based.
Series [5] is described as follows: Liver microsomes metabolic stability assay, human. It counts as in vitro ADME. The settings on record: human liver microsomes 0.5 mg/mL, 37° C.; for half-life at 2 μM: read-out: t1/2 Human. A digest of the protocol:
(§1)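 Pooled human, male rat or male mouse liver microsomes (0.5 mg/mL final) incubated at 37° C with 2 μM compound, with or without 1 mM NADPH. Samples at 0-60 min quenched in cold acetonitrile and analyzed by LC-MS/MS in duplicate. t1/2 derived from ln(% remaining) vs time slope, converted to CLint (μL/min/mg).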
For orientation: Liver microsomes are a subcellular fraction often used to study metabolism.

The nature of series [6]: Liver microsomes metabolic stability assay, rat. Type of series: in vitro ADME. As to conditions: male, rat liver microsomes 0.5 mg/mL, 37° C.; for half-life at 2 μM: read-out: t1/2 Rat. The method in brief: as §1
Series [7] in a line: Liver microsomes metabolic stability assay, mouse. Type of series: in vitro ADME. As to conditions: male, mouse liver microsomes 0.5 mg/mL, 37° C.; for half-life at 2 μM: read-out: t1/2 Mouse. The method in brief: as §1

Sequence of TrkA kinase (P04629 33-796): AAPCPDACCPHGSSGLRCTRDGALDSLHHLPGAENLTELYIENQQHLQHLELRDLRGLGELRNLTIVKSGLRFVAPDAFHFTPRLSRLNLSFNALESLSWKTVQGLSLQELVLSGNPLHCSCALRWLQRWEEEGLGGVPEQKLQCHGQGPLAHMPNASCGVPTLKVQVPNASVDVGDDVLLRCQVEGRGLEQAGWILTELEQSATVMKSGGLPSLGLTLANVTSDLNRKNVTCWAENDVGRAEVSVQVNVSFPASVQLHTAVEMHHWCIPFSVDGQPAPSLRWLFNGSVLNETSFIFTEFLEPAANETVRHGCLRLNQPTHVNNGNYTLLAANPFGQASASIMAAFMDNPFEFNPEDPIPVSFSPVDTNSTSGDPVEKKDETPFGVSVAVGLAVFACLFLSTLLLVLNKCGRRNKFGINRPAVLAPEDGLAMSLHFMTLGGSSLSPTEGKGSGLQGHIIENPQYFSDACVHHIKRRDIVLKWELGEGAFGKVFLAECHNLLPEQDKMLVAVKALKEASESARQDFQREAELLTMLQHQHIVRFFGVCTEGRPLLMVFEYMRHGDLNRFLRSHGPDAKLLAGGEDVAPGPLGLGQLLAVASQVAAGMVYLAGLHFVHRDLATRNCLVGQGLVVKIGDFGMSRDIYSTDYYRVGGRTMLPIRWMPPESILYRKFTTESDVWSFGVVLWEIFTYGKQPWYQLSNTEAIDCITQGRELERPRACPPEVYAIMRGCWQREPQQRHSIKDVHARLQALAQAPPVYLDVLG
Sequence of NTRK1-G595R (P04629 33-796 G595R): as the sequence (P04629 33-796) above, with G563R counted along it
T1 sequence (P04629 510-796 limits assumed): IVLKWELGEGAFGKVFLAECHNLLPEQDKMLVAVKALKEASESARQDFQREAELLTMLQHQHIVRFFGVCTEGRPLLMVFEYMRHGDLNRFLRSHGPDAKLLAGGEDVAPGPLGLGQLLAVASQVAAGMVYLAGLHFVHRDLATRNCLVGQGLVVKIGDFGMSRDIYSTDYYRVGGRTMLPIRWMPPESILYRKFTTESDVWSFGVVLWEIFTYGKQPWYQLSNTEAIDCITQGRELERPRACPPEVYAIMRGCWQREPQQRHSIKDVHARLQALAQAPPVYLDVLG
T2 sequence (Q16288 whole entry, the tested form may be a part): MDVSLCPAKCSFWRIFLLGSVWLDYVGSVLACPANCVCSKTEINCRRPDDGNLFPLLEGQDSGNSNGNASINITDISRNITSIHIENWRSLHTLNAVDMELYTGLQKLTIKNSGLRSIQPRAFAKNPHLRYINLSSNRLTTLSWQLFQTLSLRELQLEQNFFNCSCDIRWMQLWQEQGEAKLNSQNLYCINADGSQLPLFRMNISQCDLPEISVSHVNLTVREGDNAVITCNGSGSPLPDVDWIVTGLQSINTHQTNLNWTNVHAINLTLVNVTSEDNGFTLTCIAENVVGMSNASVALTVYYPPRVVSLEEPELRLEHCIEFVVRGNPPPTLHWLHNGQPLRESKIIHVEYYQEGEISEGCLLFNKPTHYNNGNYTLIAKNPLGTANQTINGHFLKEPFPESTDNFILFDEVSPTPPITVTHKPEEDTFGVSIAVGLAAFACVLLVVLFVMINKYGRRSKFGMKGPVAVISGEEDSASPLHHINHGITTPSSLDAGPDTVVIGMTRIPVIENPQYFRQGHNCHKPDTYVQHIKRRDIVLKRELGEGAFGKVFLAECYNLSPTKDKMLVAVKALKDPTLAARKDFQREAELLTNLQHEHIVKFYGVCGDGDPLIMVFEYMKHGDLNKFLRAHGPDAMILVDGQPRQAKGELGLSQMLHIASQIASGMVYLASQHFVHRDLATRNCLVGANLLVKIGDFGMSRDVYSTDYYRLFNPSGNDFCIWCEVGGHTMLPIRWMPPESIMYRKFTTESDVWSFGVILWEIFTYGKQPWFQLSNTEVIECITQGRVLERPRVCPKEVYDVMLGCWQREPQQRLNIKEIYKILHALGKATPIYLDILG

For orientation: IC50 means the concentration at which inhibition is half-maximal. The term microsomal CLint denotes the capacity of the preparation to metabolise the compound, expressed as a volume cleared per time. A lower microsomal CLint goes with slow turnover. For `CS(=O)(=O)c1cc2nc(-c3cnn4ccc(N5CCC[C@@H]5c5cc(F)ccc5F)nc34)[nH]c2cc1C#N` [Compound 172, (R)-2-(5-(2-(2,5-difluorophenyl)pyrrolidin-1-yl)pyrazolo[1,5-a]pyrimidin-3-yl)-5-(methylsulfonyl)-1H-benzo[d]imidazole-6-carbonitrile], the concentration for half-maximal inhibition (IC50) stood at 0.6 nM in series [1] (numeric values), 2.08 nM in series [2], 2.49 nM in series [3] and 257 nM in series [4]. Besides, the microsomal CLint at 2 μM amounted to 41.6 µL/min/mg in series [5], 44.8 µL/min/mg in series [6] and 32.4 µL/min/mg in series [7]. Moreover, the half-life at 2 μM in series [5] stood at 33.3 min; in series [6], 30.9 min; in series [7], 42.8 min.
Consider `CNC(=O)c1cc2nc(-c3cnn4ccc(N5CCC[C@@H]5c5cc(F)ccc5F)nc34)[nH]c2cc1OC` [Compound 160, (R)-2-(5-(2-(2,5-difluorophenyl)pyrrolidin-1-yl)pyrazolo[1,5-a]pyrimidin-3-yl)-6-methoxy-N-methyl-1H-benzo[d]imidazole-5-carboxamide], for which the IC50 was determined as 0.43 nM in series [1] (numeric values), 1.06 nM in series [2], 2.05 nM in series [3] and 15.6 nM in series [4]. The microsomal CLint at 2 μM was 56.2 µL/min/mg in series [5], 92.4 µL/min/mg in series [6] and 105 µL/min/mg in series [7]. Also, the results for the half-life at 2 μM in series [5], in series [6] and in series [7] were 24.7 min, 15 min and 13.2 min, respectively.
Consider `N#Cc1cc2[nH]c(-c3cnn4ccc(N5CCC[C@@H]5c5cc(F)ccc5F)nc34)nc2cc1F` [Compound 123, (R)-2-(5-(2-(2,5-difluorophenyl)pyrrolidin-1-yl)pyrazolo[1,5-a]pyrimidin-3-yl)-5-fluoro-1H-benzo[d]imidazole-6-carbonitrile], for which the figures for the IC50 in series [1] (class symbols), in series [2] and in series [4] were ≤ 10 nM, 1.9 nM and 117 nM, respectively. Also, the values for the microsomal CLint at 2 μM in series [5], in series [6] and in series [7] were 94.1 µL/min/mg, 60.8 µL/min/mg and 39 µL/min/mg, respectively. The half-life at 2 μM in series [5] came to 14.7 min; in series [6] it was 22.8 min; in series [7] it was 35.5 min.
With `COCCOc1cc2nc(-c3cnn4ccc(N5CCC[C@@H]5c5cc(F)ccc5F)nc34)[nH]c2cc1OCCOC` [Compound 101, (R)-3-(5,6-bis(2-methoxyethoxy)-1H-benzo[d]imidazol-2-yl)-5-(2-(2,5-difluorophenyl)pyrrolidin-1-yl)pyrazolo[1,5-a]pyrimidine], the IC50 in series [1] (numeric values) came to 0.4 nM; in series [2], 0.28 nM; in series [4], 165 nM. The figures for the intrinsic clearance (microsomal CLint) at 2 μM in series [5], in series [6] and in series [7] were 49.4 µL/min/mg, 105 µL/min/mg and 103 µL/min/mg, respectively. Also, the results for the half-life at 2 μM in series [5], in series [6] and in series [7] were 28.1 min, 13.2 min and 13.5 min, respectively.
As to `COCCOc1cc2[nH]c(-c3cnn4ccc(N5CCC[C@@H]5c5cc(F)ccc5F)nc34)nc2cc1C#N` [Compound 169, (R)-2-(5-(2-(2,5-difluorophenyl)pyrrolidin-1-yl)pyrazolo[1,5-a]pyrimidin-3-yl)-6-(2-methoxyethoxy)-1H-benzo[d]imidazole-5-carbonitrile], the IC50 in series [1] (class symbols) was ≤ 10 nM; in series [2], 2.91 nM; in series [4] it was 103 nM. Besides, the microsomal CLint at 2 μM came to 55.8 µL/min/mg in series [5], 78.4 µL/min/mg in series [6] and 102 µL/min/mg in series [7]. Also, the half-life at 2 μM in series [5] stood at 24.8 min; in series [6], 17.7 min; in series [7] it was 13.5 min.
As to `COC(=O)c1cc2nc(-c3cnn4ccc(N5CCC[C@@H]5c5cc(F)ccc5F)nc34)[nH]c2cc1OC` [Compound 155, methyl (R)-2-(5-(2-(2,5-difluorophenyl)pyrrolidin-1-yl)pyrazolo[1,5-a]pyrimidin-3-yl)-6-methoxy-1H-benzo[d]imidazole-5-carboxylate], the IC50 in series [1] (numeric values) was 0.6 nM; in series [2], 1.2 nM; in series [3] it was 0.53 nM; in series [4], 18.2 nM.
For the molecule `Fc1ccc(F)c([C@H]2CCCN2c2ccn3ncc(-c4nc5cc(CN6CCOCC6)ccc5[nH]4)c3n2)c1` [Compound 162, (R)-4-((2-(5-(2-(2,5-difluorophenyl)pyrrolidin-1-yl)pyrazolo[1,5-a]pyrimidin-3-yl)-1H-benzo[d]imidazol-5-yl)methyl)morpholine], the figures for the IC50 in series [1] (numeric values), in series [2] and in series [4] were 0.6 nM, 1.33 nM and 119 nM, respectively.
`CSc1cc2nc(-c3cnn4ccc(N5CCC[C@@H]5c5cc(F)ccc5F)nc34)[nH]c2cc1C#N` [Compound 126, (R)-2-(5-(2-(2,5-difluorophenyl)pyrrolidin-1-yl)pyrazolo[1,5-a]pyrimidin-3-yl)-5-(methylthio)-1H-benzo[d]imidazole-6-carbonitrile]: the results for the half-inhibitory concentration (IC50) in series [1] (class symbols), in series [2] and in series [4] were ≤ 10 nM, 1.04 nM and 106 nM, respectively. For the same molecule, the microsomal CLint at 2 μM was 42.2 µL/min/mg in series [5], 21 µL/min/mg in series [6] and 33.4 µL/min/mg in series [7]. For the same molecule, the half-life at 2 μM came out at 32.8 min in series [5], 66 min in series [6] and 41.5 min in series [7].
For the molecule `CS(=O)(=O)c1cc2nc(-c3cnn4ccc(N5CCC[C@@H]5c5cc(F)ccc5F)nc34)[nH]c2cc1C(N)=O` [Compound 173, (R)-2-(5-(2-(2,5-difluorophenyl)pyrrolidin-1-yl)pyrazolo[1,5-a]pyrimidin-3-yl)-5-(methylsulfonyl)-1H-benzo[d]imidazole-6-carboxamide], the IC50 was ≤ 10 nM in series [1] (class symbols), 2.19 nM in series [2] and 89.8 nM in series [4]. For the same molecule, the microsomal CLint at 2 μM in series [5] worked out at 46.6 µL/min/mg; in series [6], 45.2 µL/min/mg; in series [7], 97.6 µL/min/mg. In addition, the half-life at 2 μM in series [5] was determined as 29.7 min; in series [6], 30.7 min; in series [7] it was 14.2 min.
Turning to `N#Cc1cc2nc(-c3cnn4ccc(N5CCC[C@@H]5c5cc(F)ccc5F)nc34)[nH]c2cc1OC(F)F` [Compound 156, (R)-6-(difluoromethoxy)-2-(5-(2-(2,5-difluorophenyl)pyrrolidin-1-yl)pyrazolo[1,5-a]pyrimidin-3-yl)-1H-benzo[d]imidazole-5-carbonitrile], the IC50 in series [1] (numeric values) stood at 4.8 nM; in series [2], 3.92 nM; in series [3], 5.65 nM; in series [4], 183 nM.
